Test [1] has as its system B6 albino mice. In words: In vivo luciferase quantitation, Example 1 (IVIS, in vivo and ex vivo lung, liver, spleen). The note with it: lipid added at 50 mol % to liver targeting LNPs. Also noted: species or system mouse. As to the method: Luciferase mRNA was formulated in LNPs containing a cationic ionizable lipid LIP001, cholesterol, DSPC, and PEG-DMG, in the presence or absence of the cationic lipid or cationic ionizable lipid pKa>7 according to the following molar ratios:
(§1) The ratio of the sum of ionizable amines and cationic quaternary ammonium ions to mRNA phosphates was 6. Lipids were dissolved in ethanol and mRNA was dissolved in 50 mM Citrate buffer pH 5.0. The organic and aqueous phases were combined at a flow rate of 12 mL/min on a Precision Nanosystems NanoAssemblr at a ratio of 3:1 (aqueous: organic). The product was immediately diluted to 16.5% ethanol using MilliQ water. The diluted product was dialyzed against a volume of 50 mM Tris pH 7.5 45 mM NaCl that was 200-fold in excess. The dialyzed product was concentrated using Amicon Ultra 100 kDa centrifuge tubes and sterile filtered. mRNA concentration and encapsulation was assessed by the Invitrogen Ribogreen assay.
LNPs were administered to B6 albino mice via the tail vein at a dose of 0.3 mg/kg. After six hours bioluminescence was measured using an IVIS Spectrum imager. Mice were treated with 150 mg/kg luciferin substrate administered via intraperitoneal injection. Immediately following the in vivo image mice were euthanized and the lung, liver and spleen were harvested for ex vivo imaging.

Test [2] relates to BALB/c mice. Nature of the test: In vivo luciferase quantitation, Example 4 (cationic ionizable lipid pKa>7 LNPs). Further details: species or system mouse. The conditions noted are these: LIP021 LNPs with LIP001 or without lipid <7 pKa. As to the method: as §1, with “phosphates in the LNP” for “phosphates”, “300-fold” for “200-fold”
LNPs were administered to BALB/c mice via the tail vein at a dose of 0.5 mg/kg. After eighteen hours bioluminescence was measured using an IVIS Spectrum imager. Mice were treated with 150 mg/kg luciferin substrate administered via intraperitoneal injection. Immediately following the in vivo image mice were euthanized and the lung, liver and spleen were harvested for ex vivo imaging.

With `CC(C)CCC[C@@H](C)[C@H]1CC[C@H]2[C@@H]3CC=C4C[C@@H](OC(=O)NCCN(C)C)CC[C@]4(C)[C@H]3CC[C@]12C.Cl` [DC Cholesterol, DC- Cholesterol], the “shift of distribution of luciferase expression to the lungs” value in test [1] was about 40 fold.
Regarding `CCCCC/C=C\C/C=C\CCCCCCCC(=O)OCC(COC(=O)CCC(OCCCCCCCC)OCCCCCCCC)COC(=O)NCCCN1CCC(O)CC1` (centres unmarked) [LIP021, 3-((4,4-bis(octyloxy)butanoyl)oxy)-2-((((3-(4-hydroxy-piperidin-1-yl)propyl)carbamoyl)oxy)methyl) propyl (9Z,12Z)-octadeca-9,12-dienoate], the “lung targeting, ex vivo bioluminescence (FIG. 10-11)” value in test [2] was “does not exhibit a lung-targeting effect”.

(Values after patent US20250235411A1, “COMPOSITIONS AND METHODS FOR DELIVERY OF AGENTS” (Kernal Biologics, Inc., priority 2021, published 2025).)
